Some test systems named below: DU-145 prostate; SNB-19 CNS; CAKI-1 renal; HOP-62 NSCLC; OVCAR-5 ovarian; BT-549 breast; EKVX NSCLC; LOX IMVI melanoma; NCI-H226 lung; MALME-3M melanoma.
What all share (assay): NCI tumour cell line growth inhibition, 48 h

Structures are written as SMILES.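 Grown in 96-well plates, cells were treated for 48 hours with each compound at five concentrations. Insufficient inhibition: endpoint recorded as highest concentration tested. GI50 = concentration required for 50% inhibition of growth. TGI: concentration producing complete growth inhibition.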 *1 amine or outer side, *2 acyl side, *3 side chain or, on linkers, in order; H or OH if unused. Where a SMILES comes first, the peptide text is derived from it. Bridges are numbered along the chain shown (N, C = ends). [ ]: non-standard residue; d: D form. The star is where a group is joined. Phe(3,5-F2) = N[C@@H](Cc1cc(F)cc(F)c1)C(=O)O; Pro(4R-Me) = C[C@H]1CN[C@H](C(=O)O)C1; aThr = C[C@H](O)[C@H](N)C(=O)O; Pip = O=C(O)[C@@H]1CCCCN1; X10 = Fc1cc(C2CC2)ccc1N*; CO = O=C([*:1])[*:2]

For `C[C@@H]1C[C@H]2C(=O)O[C@@H](C)[C@H](NC(=O)[C@H](Cc3cc(F)cc(F)c3)NC(=O)Nc3ccc(C4CC4)cc3F)C(=O)N3CCC[C@H]3C(=O)N3CCCC[C@H]3C(=O)N[C@@H](C)C(=O)N2C1` ({X10-CO}-[Phe(3,5-F2)][aThr]P[Pip]A[Pro(4R-Me)]; ester 2-C), the GI50 in the experiment on DU-145 prostate was 0.053 µM; in the experiment with SNB-19 CNS it was 0.0404 µM; with CAKI-1 renal, 0.04 µM; in the experiment with HOP-62 NSCLC, 0.0542 µM; in the experiment on OVCAR-5 ovarian, 0.0575 µM; in the experiment with BT-549 breast, 0.0588 µM. Moreover, the GI50 was 0.0613 µM with EKVX NSCLC, 0.0668 µM in the experiment on LOX IMVI melanoma, 0.0524 µM in the experiment on NCI-H226 lung and 0.0635 µM with MALME-3M melanoma. The TGI with DU-145 prostate was > 56.9 µM; in the experiment on SNB-19 CNS it was > 46.9 µM; in the experiment on CAKI-1 renal it was 10.3 µM; in the experiment with HOP-62 NSCLC it was > 48.2 µM; in the experiment with OVCAR-5 ovarian, 3.39 µM; in the experiment on BT-549 breast it was > 22.4 µM. Besides, the TGI with EKVX NSCLC was > 95.6 µM; in the experiment on LOX IMVI melanoma, 11.5 µM; with NCI-H226 lung, 4.35 µM; in the experiment with MALME-3M melanoma, 5.9 µM.
Take `COc1cc(/C=N\NC(=O)CN2CCN(c3cc4c(cc3F)c(=O)c(C(=O)N/N=C/c3cc(OC)c(OC)c(OC)c3)cn4C3CC3)CC2)cc(OC)c1OC`: the GI50 with DU-145 prostate is 0.495 µM; in the experiment with SNB-19 CNS, 0.445 µM; in the experiment with CAKI-1 renal it was > 50.5 µM; in the experiment with HOP-62 NSCLC, 0.374 µM; in the experiment with OVCAR-5 ovarian, 0.489 µM; with BT-549 breast it was 0.199 µM. In addition, the GI50 is 0.176 µM with LOX IMVI melanoma, 0.34 µM with NCI-H226 lung and 0.235 µM in the experiment on MALME-3M melanoma. Moreover, the TGI in the experiment with DU-145 prostate was > 20 µM; with SNB-19 CNS, > 100 µM; with CAKI-1 renal, > 100 µM; with HOP-62 NSCLC it was 21 µM; with OVCAR-5 ovarian, > 62.4 µM; in the experiment with BT-549 breast, 0.461 µM. Also, the TGI with EKVX NSCLC was > 100 µM; in the experiment on LOX IMVI melanoma, 0.343 µM; in the experiment on NCI-H226 lung, 1.2 µM; in the experiment with MALME-3M melanoma it was 0.712 µM.
Turning to `COc1cc2c(c(OC)c1OC)-c1ccc(NNC(N)=S)c(=O)cc1[C@@H](NC(C)=O)CC2`, the GI50 is 0.341 µM with DU-145 prostate; 0.558 µM in the experiment with SNB-19 CNS; 11.7 µM in the experiment with CAKI-1 renal; 0.739 µM in the experiment with HOP-62 NSCLC; 7.21 µM with OVCAR-5 ovarian; 0.37 µM in the experiment on BT-549 breast. Also, the GI50 with EKVX NSCLC is 3.67 µM; in the experiment with LOX IMVI melanoma, 0.687 µM; in the experiment with MALME-3M melanoma, 2.8 µM. The TGI was 1.44 µM with DU-145 prostate; > 100 µM with SNB-19 CNS; > 100 µM with CAKI-1 renal; > 100 µM with HOP-62 NSCLC; > 100 µM in the experiment with OVCAR-5 ovarian; > 100 µM in the experiment on EKVX NSCLC. The TGI in the experiment with LOX IMVI melanoma, with NCI-H226 lung and in the experiment on MALME-3M melanoma was > 100 µM throughout.
In the case of `NS(=O)(=O)OC[C@@H]1C[C@@H](n2ccc3c(NC4CCc5ccccc54)ncnc32)C[C@@H]1O` (stereo partly specified), the GI50 with DU-145 prostate is 0.384 µM; with SNB-19 CNS it was 12.5 µM; in the experiment on CAKI-1 renal it was 0.52 µM; with HOP-62 NSCLC, 3.23 µM; in the experiment with OVCAR-5 ovarian it was 16.4 µM; in the experiment with BT-549 breast, 22.8 µM. The GI50 in the experiment with EKVX NSCLC is 21.4 µM; with LOX IMVI melanoma, 0.0673 µM; in the experiment on NCI-H226 lung, 0.362 µM; with MALME-3M melanoma it was 21.9 µM. Besides, the TGI with DU-145 prostate was > 100 µM; in the experiment with SNB-19 CNS, > 100 µM; with CAKI-1 renal, > 100 µM; in the experiment on HOP-62 NSCLC, > 46.9 µM; with OVCAR-5 ovarian, 96.9 µM; in the experiment on BT-549 breast, > 95.7 µM. Further, the TGI in the experiment on EKVX NSCLC was > 100 µM; in the experiment on LOX IMVI melanoma it was 0.436 µM; with MALME-3M melanoma, > 92.8 µM.
Consider `CCC(=O)[C@H](C)[C@@H](OC(=O)[C@H](C)CC)[C@H](C)[C@H]1OC(CC)=C(C)C(=O)[C@@H]1C`, for which the GI50 in the experiment on DU-145 prostate is 23.4 µM; in the experiment on SNB-19 CNS it was 42.6 µM; with CAKI-1 renal, 21.2 µM; in the experiment with HOP-62 NSCLC, 21.2 µM; in the experiment on OVCAR-5 ovarian, 15.4 µM; in the experiment on BT-549 breast it was 16.6 µM. Besides, the GI50 was 23.9 µM in the experiment on EKVX NSCLC, 16.9 µM with LOX IMVI melanoma, 16 µM in the experiment with NCI-H226 lung and 19.9 µM with MALME-3M melanoma. For the same compound, the TGI in the experiment with DU-145 prostate is 68.4 µM; in the experiment on SNB-19 CNS, > 100 µM; with CAKI-1 renal, 52 µM; in the experiment with HOP-62 NSCLC it was 48.1 µM; with OVCAR-5 ovarian, 48 µM; in the experiment with BT-549 breast it was 34.9 µM. The TGI in the experiment on EKVX NSCLC was found to be 73.9 µM; with LOX IMVI melanoma it was 30.5 µM; in the experiment on NCI-H226 lung, 31.6 µM; in the experiment on MALME-3M melanoma it was 42.4 µM.
Take `CCOC(=O)Cn1c(C(F)(F)F)nc2nc(Cl)c(Cl)nc21`: the TGI is 13.9 µM with DU-145 prostate; > 96.2 µM in the experiment on SNB-19 CNS; 11.5 µM with CAKI-1 renal; 60.4 µM with HOP-62 NSCLC; > 100 µM with OVCAR-5 ovarian; > 100 µM with BT-549 breast. In addition, the TGI with EKVX NSCLC was 29.4 µM; with LOX IMVI melanoma, > 100 µM; with NCI-H226 lung it was > 100 µM; with MALME-3M melanoma it was > 100 µM.

The values are drawn from PubChem BioAssay (NCI).
